The source of these data is US10570184B2, “GLP-1/glucagon receptor co-agonists for medical use” (Novo Nordisk A/S, priority 2014, dated 2020).

Starred links: 1 amine or outer side, 2 acyl side, 3 side chain; linkers in the order of their positions; H or OH if unused. Non-standard residues stand in square brackets, D forms with d. Residues, ends and D or L forms follow the SMILES beside them. Groups on a side chain read outwards from the residue. *: point of attachment. C18 diacid = O=C(O)CCCCCCCCCCCCCCCCC(=O)*; γGlu = O=C(O)[C@H](CCC(=O)[*:2])N[*:1]; AEEA = NCCOCCOCC(=O)O; Aib = CC(C)(N)C(=O)O

As a reminder, the IC50 is the concentration that gives 50% inhibition.

For this experiment, the target named is T1, human GLP-1 receptor (Homo sapiens, UniProt P43220).
T1 construct: expressed in transfected cells; host or cells: membranes of BHK cells (parent BHKTS13), clone FCW467-12A
T1 sequence (P43220 24-463): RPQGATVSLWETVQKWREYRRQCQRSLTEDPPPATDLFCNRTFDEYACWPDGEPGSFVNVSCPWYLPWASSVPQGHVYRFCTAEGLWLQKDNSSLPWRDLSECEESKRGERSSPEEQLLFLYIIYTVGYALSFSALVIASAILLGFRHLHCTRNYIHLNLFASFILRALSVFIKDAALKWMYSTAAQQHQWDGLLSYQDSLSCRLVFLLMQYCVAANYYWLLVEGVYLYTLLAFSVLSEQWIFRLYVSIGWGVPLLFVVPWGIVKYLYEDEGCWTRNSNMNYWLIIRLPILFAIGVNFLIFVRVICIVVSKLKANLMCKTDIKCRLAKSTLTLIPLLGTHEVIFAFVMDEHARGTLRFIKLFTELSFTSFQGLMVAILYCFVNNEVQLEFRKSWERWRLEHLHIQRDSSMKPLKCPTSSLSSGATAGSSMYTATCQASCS
The experiment is described as follows: Assay (II)(a) GLP-1 receptor binding, 125I-GLP-1 displacement SPA on BHK membranes. Particulars: without presence of serum albumin; read-out: GLP-1R IC50 (nM) [Assay (II)(a)]. As for the experimental part:
The GLP-1 receptor (GLP-1R) binding is a measure of affinity of a compound for the human GLP-1 receptor. The receptor binding of each compound to the human GLP-1 receptor was measured in a displacement binding assay. In this type of assay a labelled ligand (in this case 125I-GLP-1) is bound to the receptor. Each derivative was added in a series of concentrations to isolated membranes containing the human GLP-1 receptor and displacement of the labelled ligand was monitored. The receptor binding was reported as the concentration at which half of the labelled ligand was displaced from the receptor, the IC50 value. In order to test the binding of the derivatives to albumin, the assay may be performed in a very low concentration of serum albumin (max. 0.001% final assay concentration) as well as in the presence of a (considerably) higher concentration of serum albumin (2.0% final assay concentration). An increase of the IC50 value, in the presence of serum albumin indicates an affinity to serum albumin and represents a method to predict a protracted pharmacokinetic profile of the test substance in animal models. The following chemicals were used in the assay: DMEM w/o phenol red (Gibco 11880-028), Pen/strep (Invitrogen 15140-122), G418 (Invitrogen 10131-027), 1 M Hepes (Gibco 15630), EDTA (Invitrogen 15575-038), PBS (Invitrogen 14190-094), fetal calf serum (Invitrogen 16140-071), EGTA, MgCl2 (Merck 1.05832.1000), Tween 20 (Amresco 0850C335), SPA particles (wheat germ agglutinin (WGA) SPA beads, Perkin Elmer RPNQ0001), [125I]-GLP-1]-(7-36)NH2 (produced in-house), OptiPlate™-96 (Perkin Elmer). Buffer 1 consisted of 20 mM Na-HEPES plus 10 mM EDTA and pH was adjusted to 7.4. Buffer 2 consisted of 20 mM Na-HEPES plus 0.1 mM EDTA and pH was adjusted to 7.4. Assay buffer consisted of 50 mM HEPES supplemented with 5 mM EGTA, 5 mM MgCl2, 0.005% Tween 20 and pH was adjusted to 7.4. The cells used in this assay (clone FCW467-12A) were BHK cells with BHKTS13 as a parent cell line. The cells express the human GLP-1 receptor. The cells were grown at 5% CO2 in DMEM, 10% fetal calf serum, 1% Pen/Strep (Penicillin/Streptomycin) and 1.0 mg/ml of the selection marker G418. To make a membrane preparation the cells were grown to approximately 80% confluence. The cells were washed twice in phosphate-buffered saline and harvested. The cells were pelleted using a brief centrifugation and the cell pellet was kept on ice. The cell pellet was homogenised with ULTRA-THURRAX dispersing instrument for 20-30 seconds in a suitable amount of buffer 1 (e.g., 10 ml). The homogenate was centrifuged for 15 minutes. The pellet was re-suspended (homogenised) in 10 ml buffer 2 and centrifuged. This step was repeated once more. The resulting pellet was re-suspended in buffer 2 and the protein concentration was determined. The membranes were aliquoted and stored at minus 80° C. • 1. For the receptor binding assay, 50 μl of the assay buffer was added to each well of an assay plate. • 2. Test compounds were serially diluted to give the following concentrations: 8×10EE-7 M, 8×10EE-8 M, 8×10EE-9 M, 8×10EE-10 M, 8×10EE-11 M, 8×10EE-12 M and 8×10EE-13 M. Twenty-five μl were added to appropriate wells in the assay plate. • 3. Cell membrane aliquots were thawed and diluted to their working concentration. Fifty μl were added to each well in the assay plate. • 4. WGA SPA beads were suspended in assay buffer at 20 mg/ml. The suspension was diluted to 10 mg/ml in assay buffer just prior to addition to the assay plate. Fifty μl were added to each well in the assay plate. • 5. The incubation was started by adding 25 μl of […] solution of [125I]-GLP-1]-(7-36)NH2 to each well of the assay plate. A 25 μl aliquot was reserved for measuring total counts/well. • 6. The assay plate was incubated for 2 h at 30° C. • 7. The assay plate was centrifuged for 10 min. • 8. The assay plate was read in a Perkin Elmer TopCount NXT instrument. […]
Consider `CC[C@H](C)[C@H](NC(=O)[C@H](CC(C)C)NC(=O)[C@H](Cc1c[nH]c2ccccc12)NC(=O)[C@H](CCCCNC(=O)COCCOCCNC(=O)COCCOCCNC(=O)CC[C@H](NC(=O)CC[C@H](NC(=O)CC[C@H](NC(=O)CCCCCCCCCCCCCCCCC(=O)O)C(=O)O)C(=O)O)C(=O)O)NC(=O)[C@@H](NC(=O)[C@H](Cc1ccccc1)NC(=O)[C@H](CC(=O)O)NC(=O)[C@H](CCCNC(=N)N)NC(=O)[C@H](C)NC(=O)[C@H](CCCNC(=N)N)NC(=O)[C@H](CCCNC(=N)N)NC(=O)[C@H](C)NC(=O)[C@H](CC(=O)O)NC(=O)[C@H](CC(C)C)NC(=O)[C@H](Cc1ccc(O)cc1)NC(=O)[C@H](CCCCN)NC(=O)[C@H](CO)NC(=O)[C@H](Cc1ccc(O)cc1)NC(=O)[C@H](CC(=O)O)NC(=O)[C@H](CO)NC(=O)[C@@H](NC(=O)[C@H](Cc1ccccc1)NC(=O)[C@@H](NC(=O)CNC(=O)[C@H](CCC(N)=O)NC(=O)C(C)(C)NC(=O)[C@@H](N)Cc1c[nH]cn1)[C@@H](C)O)[C@@H](C)O)C(C)C)C(=O)N[C@@H](CO)C(=O)N[C@H](C(N)=O)[C@@H](C)O` [Chem. 1, N^ε24-[2-[2-[2-[[2-[2-[2-[[(4S)-4-carboxy-4-[[(4S)-4-carboxy-4-[[(4S)-4-carboxy-4-(17-carboxyheptadecanoylamino)butanoyl]amino]butanoyl]amino]butanoyl]amino]ethoxy]ethoxy]acetyl]amino]ethoxy]ethoxy]acetyl]-[Aib2,Ala16,Arg20,Lys24,Ile27,Ser28]-Glucagon amide] (H-H[Aib]QGTFTSDYSKYLDARRARDFVK([AEEA-AEEA-γGlu-γGlu-γGlu-C18 diacid])WLIST-NH2), for which the IC50 came to 0.9 nM.
`CC[C@H](C)[C@H](NC(=O)[C@H](CC(C)C)NC(=O)[C@H](Cc1c[nH]c2ccccc12)NC(=O)[C@H](CCC(N)=O)NC(=O)[C@@H](NC(=O)[C@H](Cc1ccccc1)NC(=O)[C@H](CC(=O)O)NC(=O)[C@H](CCCNC(=N)N)NC(=O)[C@H](C)NC(=O)[C@H](CCCNC(=N)N)NC(=O)[C@H](CCCNC(=N)N)NC(=O)[C@H](C)NC(=O)[C@H](CC(=O)O)NC(=O)[C@H](CC(C)C)NC(=O)[C@H](Cc1ccc(O)cc1)NC(=O)[C@H](CCCCN)NC(=O)[C@H](CO)NC(=O)[C@H](CC(C)C)NC(=O)[C@H](CC(=O)O)NC(=O)[C@H](CO)NC(=O)[C@@H](NC(=O)[C@H](Cc1ccccc1)NC(=O)[C@@H](NC(=O)CNC(=O)[C@H](CCC(N)=O)NC(=O)C(C)(C)NC(=O)[C@@H](N)Cc1c[nH]cn1)[C@@H](C)O)[C@@H](C)O)C(C)C)C(=O)N[C@@H](CCCCNC(=O)COCCOCCNC(=O)COCCOCCNC(=O)CC[C@H](NC(=O)CC[C@H](NC(=O)CC[C@H](NC(=O)CCCCCCCCCCCCCCCCC(=O)O)C(=O)O)C(=O)O)C(=O)O)C(=O)N[C@H](C(N)=O)[C@@H](C)O` [Chem. 5, N^ε28-[2-[2-[2-[[2-[2-[2-[[(4S)-4-carboxy-4-[[(4S)-4-carboxy-4-[[(4S)-4-carboxy-4-(17-carboxyheptadecanoylamino)butanoyl]amino]butanoyl]amino]butanoyl]amino]ethoxy]ethoxy]acetyl]amino]ethoxy]ethoxy]acetyl]-[Aib2,Leu10,Ala16,Arg20,Ile27,Lys28]-Glucagon amide] (H-H[Aib]QGTFTSDLSKYLDARRARDFVQWLIK([AEEA-AEEA-γGlu-γGlu-γGlu-C18 diacid])T-NH2; N-terminus assumed): the IC50 stood at 0.1 nM.
Next, `CC[C@H](C)[C@H](NC(=O)[C@H](CC(C)C)NC(=O)[C@H](Cc1c[nH]c2ccccc12)NC(=O)[C@H](CCC(N)=O)NC(=O)[C@@H](NC(=O)[C@H](Cc1ccccc1)NC(=O)[C@H](CC(=O)O)NC(=O)[C@H](CCC(N)=O)NC(=O)[C@H](C)NC(=O)[C@H](CCCNC(=N)N)NC(=O)[C@H](CCCNC(=N)N)NC(=O)[C@H](CC(C)C)NC(=O)[C@H](CC(=O)O)NC(=O)[C@H](CC(C)C)NC(=O)[C@H](Cc1ccc(O)cc1)NC(=O)[C@H](CCCCN)NC(=O)[C@H](CO)NC(=O)[C@H](CC(C)C)NC(=O)[C@H](CC(=O)O)NC(=O)[C@H](CO)NC(=O)[C@@H](NC(=O)[C@H](Cc1ccccc1)NC(=O)[C@@H](NC(=O)CNC(=O)[C@H](CCC(N)=O)NC(=O)C(C)(C)NC(=O)[C@@H](N)Cc1c[nH]cn1)[C@@H](C)O)[C@@H](C)O)C(C)C)C(=O)N[C@@H](CCCCNC(=O)COCCOCCNC(=O)COCCOCCNC(=O)CC[C@H](NC(=O)CC[C@H](NC(=O)CC[C@H](NC(=O)CCCCCCCCCCCCCCCCC(=O)O)C(=O)O)C(=O)O)C(=O)O)C(=O)N[C@H](C(N)=O)[C@@H](C)O` [Chem. 9, N^ε28-[2-[2-[2-[[2-[2-[2-[[(4S)-4-carboxy-4-[[(4S)-4-carboxy-4-[[(4S)-4-carboxy-4-(17-carboxyheptadecanoylamino)butanoyl]amino]butanoyl]amino]butanoyl]amino]ethoxy]ethoxy]acetyl]amino]ethoxy]ethoxy]acetyl]-[Aib2,Leu10,Leu16,Ile27,Lys28]-Glucagon amide] (H-H[Aib]QGTFTSDLSKYLDLRRAQDFVQWLIK([AEEA-AEEA-γGlu-γGlu-γGlu-C18 diacid])T-NH2; N-terminus assumed): 0.5 nM.
With `CC[C@H](C)[C@H](NC(=O)[C@H](CC(C)C)NC(=O)[C@H](Cc1c[nH]c2ccccc12)NC(=O)[C@H](CCCCNC(=O)COCCOCCNC(=O)COCCOCCNC(=O)CC[C@H](NC(=O)CC[C@H](NC(=O)CC[C@H](NC(=O)CCCCCCCCCCCCCCCCC(=O)O)C(=O)O)C(=O)O)C(=O)O)NC(=O)[C@@H](NC(=O)[C@H](Cc1ccccc1)NC(=O)[C@H](CC(=O)O)NC(=O)[C@H](CCCNC(=N)N)NC(=O)[C@H](C)NC(=O)[C@H](CCCNC(=N)N)NC(=O)[C@H](CCCNC(=N)N)NC(=O)[C@H](CO)NC(=O)[C@H](CCC(=O)O)NC(=O)[C@H](CC(C)C)NC(=O)[C@H](Cc1ccc(O)cc1)NC(=O)[C@H](CCCCN)NC(=O)[C@H](CO)NC(=O)[C@H](Cc1ccc(O)cc1)NC(=O)[C@H](CC(=O)O)NC(=O)[C@H](CO)NC(=O)[C@@H](NC(=O)[C@H](Cc1ccccc1)NC(=O)[C@@H](NC(=O)CNC(=O)[C@H](CCC(N)=O)NC(=O)C(C)(C)NC(=O)[C@@H](N)Cc1c[nH]cn1)[C@@H](C)O)[C@@H](C)O)C(C)C)C(=O)N[C@@H](CO)C(=O)N[C@H](C(N)=O)[C@@H](C)O` [Chem. 11, N^ε24-[2-[2-[2-[[2-[2-[2-[[(4S)-4-carboxy-4-[[(4S)-4-carboxy-4-[[(4S)-4-carboxy-4-(17-carboxyheptadecanoylamino)butanoyl]amino]butanoyl]amino]butanoyl]amino]ethoxy]ethoxy]acetyl]amino]ethoxy]ethoxy]acetyl]-[Aib2,Glu15,Arg20,Lys24,Ile27,Ser28]-Glucagon amide] (H-H[Aib]QGTFTSDYSKYLESRRARDFVK([AEEA-AEEA-γGlu-γGlu-γGlu-C18 diacid])WLIST-NH2), the 50% inhibitory concentration (IC50) worked out at 0.5 nM.
